Results taken from patent publication US12318400B2, “Brown and beige adipocyte activating agent containing D-allulose as active ingredient” (NATIONAL UNIVERSITY CORPORATION KAGAWA UNIVERSITY, priority 2018, dated 2025).
“Also recorded” adds a separate entry of the source.

Tests used:
brown adipocytes (BAT) = assay: Example 1: high fat diet mice given 2% D-allulose drinking water, body weight, blood glucose and brown adipocytes; assay type: in vivo
Method: (§1) The influence of administration of D-allulose, one of rare sugars, on brown adipocytes (BAT: abbreviation of brown adipose tissue) was studied. The experiment was performed using 6-week mice and the mice were divided into 3 groups, each group having 5 mice. The treatment was made as follows for 8 weeks. • (1) A group of normal diet and drinking of water (Normal food) • (2) A group of high fat diet and drinking of water (HFD) • (3) A group of high fat diet and drinking of water containing 2% D-allulose (D-allulose) (HFD+2% D-allulose) 2. Evaluation item: • (1) Transition of Body Weight • Transition of Blood Glucose • (2) Size and weight of brown adipocytes under the scapula • (3) Pathological evaluation of the morphological change in brown adipocytes • (4) Evaluation of UCP-1, PPAR-α, and PGC-1α expression levels as activation of brown adipocytes 3.

UCP-1, PPAR-α, PGC-1α = assay: Example 1: expression levels of UCP-1, PPAR-α and PGC-1α as activation of brown adipocytes; assay type: in vivo, mice; conditions: HFD+2% D-allulose vs HFD
Method: as §1, with “In Examples of the present invention, activation of brown adipocytes was evaluated by the expression level of UCP-1, PPAR-α, or PGC-1α. The influence” for “The influence”

type 2 diabetic patients = assay: Example 2: human clinical test of D-allulose (D-psicose) in type 2 diabetic patients; assay type: in vivo
Description: Type 2 diabetic patients unable to get sufficient effects by any of the following treatments (HbA1c: 6.5% or more) […] • 1) Only diet therapy and exercise therapy • 2) Drug therapy in addition to diet therapy and exercise therapy <Exclusion Standards> • 1) Patients having a contraindication to D-allulose (D-psicose) administration • 2) Patients who are participating in another clinical trial • 3) Pregnant women, parturients, lactating women, or women who may be pregnant • 4) Patients having 8% or more HbA1c and poor in blood glucose control • 5) Patients recognized to have severe renal dysfunction (serum creatinine level: 1.5 mg/dl or more) • 6) Patients having another severe complication <Experimenting Method> D-allulose (D-psicose) powders: provided as sticks each containing 5 g/pack (product of Rare Sweet) It was orally administered with 5 g per dose three times a day. Twelve type 2 diabetic patients (4 male cases, 8 female cases) who could be observed for 3 months were compared for general findings and blood test before administration and 12 weeks after administration (Wilcoxon signed rank test).

[1] = test system: brown adipose tissue (BAT); assay type: in vivo, mice
Method: FIG. 10 is a drawing for describing the procedure (protocol) of the experiment of Example 3. Mice are divided into two groups, with one group having five mice. Eight-week-old mice of each group are loaded with a high fat diet (HFD). From four weeks after loading with HFD, one of the groups is loaded with HFD continuously. To the other group, D-allulose (0.2 mg/body weight g/day), in addition to HFD, is administered to the stomach by a sonde. Until week 10, the body weight, food intake, water intake, and blood glucose level are monitored. Glucose was intraperitoneally administered and the blood glucose level after 0, 15, 30, 60, 90, and 120 minutes were measured.

beige adipocytes = assay: Example 3: marker expression in beige adipocytes of HFD-loaded mice after D-allulose; assay type: in vivo
Method: (§2) (Purpose) The influence of D-allulose administration to mice on their brown adipose tissue is confirmed. In addition, differentiation of beige adipocytes is studied with a change in UCP-1 expression or the like as a marker. Mice are divided into two groups, each group having five mice. Eight-week-old mice of each group are loaded with a high fat diet (HFD). From four weeks after loading with HFD, one of the groups is loaded with HFD continuously. To the other group, D-allulose (0.2 mg/body weight g/day) together with HFD is administered to the stomach by a sonde. Until week 10, the body weight, food intake, water intake, and blood glucose level are monitored. The administration of D-allulose has a possibility of contributing a weight loss by inducing beige adipocytes and activating brown adipocytes. • 9) With regard to the details of the induction of beige adipocytes and the activation of brown adipocytes caused by D-allulose administration, expression of UCP-1 and Prdm16 which are genes involved in thermogenesis, Pgcl-α and Tfam which are genes reflecting the mitochondrial function of organelle involved in thermogenesis, and PPARγ which is a gene related to the differentiation of fat are investigated and the results are shown in FIG. 19.

brown adipocytes = assay: Example 3: marker expression in brown adipocytes of HFD-loaded mice after D-allulose; assay type: in vivo
Method: as §2

[2] = test system: cell line derived from a single clone from BAT of the adult supraclavicular fossa; assay: Differentiation induction into beige adipocytes in cells (BAT-protocol, WAT-protocol) with addition of D-allulose; assay type: cell-based
Description: FIG. 21 is a drawing for describing, with regard to an experiment using cells (a single-clone-derived cell strain is established from BAT of adult supraclavicular fossa portion and is used as a research model of differentiation induction into beige adipocytes), two protocols, that is, BAT-protocol and WAT-protocol, for inducing beige adipocytes. FIG. 22 is a drawing for describing, in an experiment using cells, protocols including two protocols, that is, BAT-protocol and WAT-protocol, for inducing beige adipocytes and further including addition of D-allulose. […] They are presumed to participate in the activation of brown adipocytes. • 10) FIG. 20 is a drawing for describing two protocols for inducing beige adipocytes, that is, BAT-protocol and WAT-protocol used in an experiment using cells (a cell line derived from a single clone from BAT of the adult supraclavicular fossa is established and used as a research model of the differentiation induction into beige adipocytes). FIG. 21 is a drawing for describing a protocol including two protocols for inducing beige adipocytes, that is, BAT-protocol and WAT-protocol and further including addition of D-allulose in an experiment using cells.

[3] = 6-week mice, HFD+2% D-allulose water, 8 weeks, vs HFD group
[4] = after administration vs before administration
[5] = before vs 12 weeks after administration, 5 g three times a day
[6] = HFD mice, D-allulose administered group
[7] = classical brown adipose tissue, HFD-loaded mice
[8] = presence or absence of D-allulose

`O=C(CO)[C@H](O)[C@H](O)[C@H](O)CO` [D-allulose] was tested, and the “Transition of blood glucose” value (brown adipocytes (BAT); [3]) was “a decrease in blood glucose was recognized”, the “Transition of body weight” value (brown adipocytes (BAT); [3]) was “a decrease in body weight was observed” and the “Size and weight of brown adipocytes under the scapula” value (brown adipocytes (BAT); HFD+2% D-allulose, 8 weeks, vs HFD group) was “an increase in brown adipocytes was recognized”. For the same molecule, the “Pathological evaluation of the morphological change in brown adipocytes” value (brown adipocytes (BAT); HFD+2% D-allulose, tissue staining, vs HFD group (steatosis)) was “improved to have almost a normal state; also recorded: almost morphologically similar to that of the normal diet intake group”, the PGC-1α expression level (UCP-1, PPAR-α, PGC-1α) was “induced more strongly” and the PPAR-α expression level (UCP-1, PPAR-α, PGC-1α) was “induced more strongly”. For the same molecule, the UCP-1 expression level (UCP-1, PPAR-α, PGC-1α) was “induced UCP-1 further”, the TNF-α level (type 2 diabetic patients; 2 months after administration) was “significant decrease” and the “Body weight decrease on average” value (type 2 diabetic patients; 5 g three times a day orally, 3 months after administration, 12 patients) was 1 kg. The Body weight (type 2 diabetic patients; 5 g three times a day orally, after 3 months) was “significant decrease in body weight”, the MCP-1 level (type 2 diabetic patients; [4]) was “significantly decreased” and the TNF-α level (type 2 diabetic patients; [4]) was “significantly decreased”. The GA (type 2 diabetic patients; [5]) was “No significant difference”, the HbA1c (type 2 diabetic patients; [5]) was “No significant difference” and the adiponectin (type 2 diabetic patients; [5]) was “No significant difference”. For the same molecule, the leptin (type 2 diabetic patients; [5]) was “No significant difference”, the “Increasing degree of body weight” value ([1]; HFD mice, D-allulose 0.2 mg/body weight g/day by sonde, from week 2 after administration is started) was “lowers significantly” and the “Fasting blood glucose level” value ([1]; HFD mice, D-allulose 0.2 mg/body weight g/day, from week 3 after administration is started) was “a reduction in fasting blood glucose level is observed”. The “Area of brown adipocytes (BAT)” value [1, 6] was “increase”, the “Weight of brown adipocytes (BAT)” value [1, 6] was “increase” and the “Blood glucose level in the glucose loading test” value ([1]; after 10 weeks, glucose intraperitoneally, after 90 and 120 minutes, vs control group) was “significantly decreases”. For the same molecule, the Food intake ([1]; mouse, in vivo) was “no significant change”, the Water intake ([1]; mouse, in vivo) was “no significant change” and the “UCP-1 mRNA expression” value (beige adipocytes; HFD-loaded mice) was “significantly increased”. For the same molecule, the UCP-1 protein expression (beige adipocytes; HFD-loaded mice) was “significantly increased”, the PPARγ gene expression (beige adipocytes; gene panel) was “increased” and the Pgcl-α gene expression (beige adipocytes; gene panel) was “increased”. The Prdm16 gene expression (beige adipocytes; gene panel) was “increased”, the Tfam gene expression (beige adipocytes; gene panel) was “increased” and the UCP-1 gene expression (beige adipocytes; gene panel) was “increased”. The Prdm16 gene expression (brown adipocytes; brown adipocytes, gene panel) was “increase”, the Tfam gene expression (brown adipocytes; brown adipocytes, gene panel) was “increase” and the UCP-1 gene expression (brown adipocytes; brown adipocytes, gene panel) was “increase”. For the same molecule, the “UCP-1 mRNA expression” value (brown adipocytes; [7]) was “increased”, the UCP-1 protein expression (brown adipocytes; [7]) was “increased” and the “Expression of all the markers” value ([2]; D-allulose administered group, markers UCP-1, Prdm16, Pgc-1α, tfam, cox8b, PPARγ) was “significantly increased”. For the same molecule, the PPARγ expression ([2]; WAT-protocol) was “enhances the expression”, the Pgc-1α expression ([2]; WAT-protocol) was “enhances the expression” and the Prdm16 expression ([2]; WAT-protocol) was “enhances the expression”. The UCP-1 protein expression ([2]; WAT-protocol) was “slightly enhances”, the “oil-red-O (fat staining)” value ([2]; addition of D-allulose to the differentiation inducing protocol) was “promotes” and the PPARγ expression ([2]; both differentiation protocols) was “enhances expression of PPARγ”. The PPARγ expression [2, 8] was “increased” and the UCP-1 expression [2, 8] was “increased”.
